Reference: ChEMBL document CHEMBL4507288 (2021)
pKi: −log10 of the molar value.

Experiments:
[1] = target: Mitogen-activated protein kinase kinase kinase 5 (Homo sapiens) (UniProt Q99683); conditions: Compound concentration 1000.0 nM
[2] = target: Serine/threonine-protein kinase WNK3 (Homo sapiens) (UniProt Q9BYP7); conditions: Compound concentration 1000.0 nM
[3] = target: Misshapen-like kinase 1 (Homo sapiens) (UniProt Q8N4C8); conditions: Compound concentration 1000.0 nM
[4] = target: Serine/threonine-protein kinase PLK1 (Homo sapiens) (UniProt P53350); conditions: Compound concentration 1000.0 nM
[5] = target: Serine/threonine-protein kinase PAK 6 (Homo sapiens) (UniProt Q9NQU5); conditions: Compound concentration 1000.0 nM
[6] = target: Serine/threonine-protein kinase NLK (Homo sapiens) (UniProt Q9UBE8); conditions: Compound concentration 1000.0 nM
[7] = target: Bone morphogenetic protein receptor type-1A (Homo sapiens) (UniProt P36894); conditions: Compound concentration 1000.0 nM
[8] = target: Macrophage-stimulating protein receptor (Homo sapiens) (UniProt Q04912); conditions: Compound concentration 1000.0 nM
Macrophage-stimulating protein receptor (Homo sapiens), sequence (Q04912 25-304 limits assumed): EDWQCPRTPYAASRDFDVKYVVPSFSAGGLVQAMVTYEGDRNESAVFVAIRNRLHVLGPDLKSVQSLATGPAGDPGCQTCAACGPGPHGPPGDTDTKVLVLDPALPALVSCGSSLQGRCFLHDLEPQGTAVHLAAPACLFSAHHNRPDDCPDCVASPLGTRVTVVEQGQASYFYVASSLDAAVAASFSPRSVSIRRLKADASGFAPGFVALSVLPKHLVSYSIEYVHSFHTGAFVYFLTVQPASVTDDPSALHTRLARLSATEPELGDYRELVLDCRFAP
Macrophage-stimulating protein receptor (Homo sapiens), sequence (Q04912 310-1400 limits assumed): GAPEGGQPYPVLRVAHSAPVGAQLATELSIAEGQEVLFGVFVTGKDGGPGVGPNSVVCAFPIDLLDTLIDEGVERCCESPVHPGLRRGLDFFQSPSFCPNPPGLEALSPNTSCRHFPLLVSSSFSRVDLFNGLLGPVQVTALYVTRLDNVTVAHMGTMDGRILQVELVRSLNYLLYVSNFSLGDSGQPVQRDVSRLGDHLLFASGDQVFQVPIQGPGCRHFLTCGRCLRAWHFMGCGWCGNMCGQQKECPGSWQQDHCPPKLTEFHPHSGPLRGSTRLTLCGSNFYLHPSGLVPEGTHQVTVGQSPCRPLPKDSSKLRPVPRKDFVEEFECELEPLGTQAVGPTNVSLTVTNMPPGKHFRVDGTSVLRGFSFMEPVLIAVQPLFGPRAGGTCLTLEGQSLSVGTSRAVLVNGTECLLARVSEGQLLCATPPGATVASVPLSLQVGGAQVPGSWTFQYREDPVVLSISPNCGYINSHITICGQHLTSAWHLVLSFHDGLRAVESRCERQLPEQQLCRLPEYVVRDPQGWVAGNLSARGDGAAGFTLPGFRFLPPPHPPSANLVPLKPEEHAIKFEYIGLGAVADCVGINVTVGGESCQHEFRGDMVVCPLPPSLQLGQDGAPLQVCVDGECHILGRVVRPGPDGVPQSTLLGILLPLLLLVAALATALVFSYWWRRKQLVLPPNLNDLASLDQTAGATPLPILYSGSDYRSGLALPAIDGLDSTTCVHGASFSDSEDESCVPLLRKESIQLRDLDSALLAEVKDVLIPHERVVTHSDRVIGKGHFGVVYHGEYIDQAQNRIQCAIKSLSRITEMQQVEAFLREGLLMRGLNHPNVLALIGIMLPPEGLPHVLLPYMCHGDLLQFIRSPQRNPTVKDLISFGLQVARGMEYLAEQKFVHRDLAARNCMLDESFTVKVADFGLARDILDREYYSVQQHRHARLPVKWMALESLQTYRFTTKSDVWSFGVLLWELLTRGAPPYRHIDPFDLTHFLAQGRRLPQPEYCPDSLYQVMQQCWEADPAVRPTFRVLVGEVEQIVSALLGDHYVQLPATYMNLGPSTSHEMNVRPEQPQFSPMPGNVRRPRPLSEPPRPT

[9] = target: TRAF2 and NCK-interacting protein kinase (Homo sapiens) (UniProt Q9UKE5); conditions: Compound concentration 1000.0 nM
TRAF2 and NCK-interacting protein kinase (Homo sapiens), sequence (Q9UKE5 whole entry, looked up): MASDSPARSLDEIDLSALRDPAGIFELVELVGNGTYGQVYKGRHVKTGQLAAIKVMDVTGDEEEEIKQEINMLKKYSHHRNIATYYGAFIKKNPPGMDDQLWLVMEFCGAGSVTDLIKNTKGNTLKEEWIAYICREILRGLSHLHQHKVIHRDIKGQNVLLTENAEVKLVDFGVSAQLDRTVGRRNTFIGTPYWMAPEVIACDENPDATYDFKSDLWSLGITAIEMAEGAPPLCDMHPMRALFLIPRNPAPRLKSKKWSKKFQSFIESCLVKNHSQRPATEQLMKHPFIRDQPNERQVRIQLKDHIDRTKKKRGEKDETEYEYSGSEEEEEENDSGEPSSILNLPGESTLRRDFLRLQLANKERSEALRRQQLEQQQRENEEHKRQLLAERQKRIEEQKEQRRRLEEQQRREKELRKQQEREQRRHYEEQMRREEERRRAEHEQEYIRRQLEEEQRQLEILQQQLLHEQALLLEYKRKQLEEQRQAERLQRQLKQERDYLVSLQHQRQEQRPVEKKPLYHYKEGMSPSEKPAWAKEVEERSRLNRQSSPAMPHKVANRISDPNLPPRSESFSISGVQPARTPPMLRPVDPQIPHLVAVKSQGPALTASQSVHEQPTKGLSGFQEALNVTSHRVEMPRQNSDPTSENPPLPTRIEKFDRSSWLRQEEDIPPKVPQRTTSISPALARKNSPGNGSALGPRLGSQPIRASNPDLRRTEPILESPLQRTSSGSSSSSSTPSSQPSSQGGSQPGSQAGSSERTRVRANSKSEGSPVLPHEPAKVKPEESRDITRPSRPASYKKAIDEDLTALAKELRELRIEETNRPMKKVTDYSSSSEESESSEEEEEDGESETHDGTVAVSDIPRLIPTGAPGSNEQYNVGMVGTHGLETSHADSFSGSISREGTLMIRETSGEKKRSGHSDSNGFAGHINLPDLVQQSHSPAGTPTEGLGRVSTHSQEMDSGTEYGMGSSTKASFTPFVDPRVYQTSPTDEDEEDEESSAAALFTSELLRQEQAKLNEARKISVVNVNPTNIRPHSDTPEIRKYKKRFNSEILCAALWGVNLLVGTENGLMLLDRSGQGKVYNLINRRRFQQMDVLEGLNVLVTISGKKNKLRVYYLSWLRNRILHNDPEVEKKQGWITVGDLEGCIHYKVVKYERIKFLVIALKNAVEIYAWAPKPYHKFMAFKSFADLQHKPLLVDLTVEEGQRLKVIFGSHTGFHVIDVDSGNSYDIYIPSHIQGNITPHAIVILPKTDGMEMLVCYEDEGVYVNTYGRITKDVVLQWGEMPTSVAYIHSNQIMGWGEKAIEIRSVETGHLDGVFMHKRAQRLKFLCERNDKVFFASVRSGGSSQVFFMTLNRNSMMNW

[10] = target: Phosphatidylinositol 4-kinase beta (Homo sapiens) (UniProt Q9UBF8); conditions: Compound concentration 1000.0 nM
[11] = target: Tyrosine-protein kinase receptor UFO (Homo sapiens) (UniProt P30530); conditions: Compound concentration 1000.0 nM
[12] = target: Maternal embryonic leucine zipper kinase (Homo sapiens) (UniProt Q14680); conditions: Compound concentration 1000.0 nM
[13] = target: Tyrosine-protein kinase JAK1 (Homo sapiens) (UniProt P23458); conditions: Compound concentration 1000.0 nM
[14] = target: Cyclin-dependent kinase-like 3 (Homo sapiens) (UniProt Q8IVW4); conditions: Compound concentration 1000.0 nM
[15] = target: Serine/threonine-protein kinase PAK 5 (Homo sapiens) (UniProt Q9P286); conditions: Compound concentration 1000.0 nM
[16] = target: Serine/threonine-protein kinase MARK1 (Homo sapiens) (UniProt Q9P0L2); conditions: Compound concentration 1000.0 nM
[17] = target: Cyclin-dependent kinase 11A (Homo sapiens) (UniProt Q9UQ88); conditions: Compound concentration 1000.0 nM
[18] = target: Dual specificity tyrosine-phosphorylation-regulated kinase 1B (Homo sapiens) (UniProt Q9Y463); conditions: Compound concentration 1000.0 nM
[19] = target: Serine/threonine-protein kinase ULK1 (Homo sapiens) (UniProt O75385); conditions: Compound concentration 1000.0 nM
[20] = target: Testis-specific serine/threonine-protein kinase 3 (Homo sapiens) (UniProt Q96PN8); conditions: Compound concentration 1000.0 nM
[21] = target: NUAK family SNF1-like kinase 1 (Homo sapiens) (UniProt O60285); conditions: Compound concentration 1000.0 nM
[22] = target: Phosphorylase b kinase gamma catalytic chain, skeletal muscle/heart isoform (Homo sapiens) (UniProt Q16816); conditions: Compound concentration 1000.0 nM
[23] = target: Serine/threonine-protein kinase TBK1 (Homo sapiens) (UniProt Q9UHD2); conditions: Compound concentration 1000.0 nM
[24] = target: Cyclin-dependent kinase 8 (Homo sapiens) (UniProt P49336); conditions: Compound concentration 1000.0 nM
[25] = target: Dual specificity tyrosine-phosphorylation-regulated kinase 1A (Homo sapiens) (UniProt Q13627); conditions: Compound concentration 1000.0 nM
[26] = target: Myotonin-protein kinase (Homo sapiens) (UniProt Q09013); conditions: Compound concentration 1000.0 nM
[27] = target: Vascular endothelial growth factor receptor 2 (Homo sapiens) (UniProt P35968); conditions: Compound concentration 1000.0 nM
[28] = target: Calcium-dependent protein kinase 1 (Plasmodium falciparum) (UniProt P62344); conditions: Compound concentration 1000.0 nM
[29] = target: Serine/threonine-protein kinase Nek9 (Homo sapiens) (UniProt Q8TD19); conditions: Compound concentration 1000.0 nM
[30] = target: Serine/threonine-protein kinase 35 (Homo sapiens) (UniProt Q8TDR2); conditions: Compound concentration 1000.0 nM
[31] = target: Phosphatidylinositol 4-phosphate 5-kinase type-1 alpha (Homo sapiens) (UniProt Q99755); conditions: Compound concentration 1000.0 nM
[32] = target: Serine/threonine-protein kinase 32C (Homo sapiens) (UniProt Q86UX6); conditions: Compound concentration 1000.0 nM
[33] = target: Fibroblast growth factor receptor 1 (Homo sapiens) (UniProt P11362); conditions: Compound concentration 1000.0 nM
Fibroblast growth factor receptor 1 (Homo sapiens), sequence (P11362 22-822 limits assumed): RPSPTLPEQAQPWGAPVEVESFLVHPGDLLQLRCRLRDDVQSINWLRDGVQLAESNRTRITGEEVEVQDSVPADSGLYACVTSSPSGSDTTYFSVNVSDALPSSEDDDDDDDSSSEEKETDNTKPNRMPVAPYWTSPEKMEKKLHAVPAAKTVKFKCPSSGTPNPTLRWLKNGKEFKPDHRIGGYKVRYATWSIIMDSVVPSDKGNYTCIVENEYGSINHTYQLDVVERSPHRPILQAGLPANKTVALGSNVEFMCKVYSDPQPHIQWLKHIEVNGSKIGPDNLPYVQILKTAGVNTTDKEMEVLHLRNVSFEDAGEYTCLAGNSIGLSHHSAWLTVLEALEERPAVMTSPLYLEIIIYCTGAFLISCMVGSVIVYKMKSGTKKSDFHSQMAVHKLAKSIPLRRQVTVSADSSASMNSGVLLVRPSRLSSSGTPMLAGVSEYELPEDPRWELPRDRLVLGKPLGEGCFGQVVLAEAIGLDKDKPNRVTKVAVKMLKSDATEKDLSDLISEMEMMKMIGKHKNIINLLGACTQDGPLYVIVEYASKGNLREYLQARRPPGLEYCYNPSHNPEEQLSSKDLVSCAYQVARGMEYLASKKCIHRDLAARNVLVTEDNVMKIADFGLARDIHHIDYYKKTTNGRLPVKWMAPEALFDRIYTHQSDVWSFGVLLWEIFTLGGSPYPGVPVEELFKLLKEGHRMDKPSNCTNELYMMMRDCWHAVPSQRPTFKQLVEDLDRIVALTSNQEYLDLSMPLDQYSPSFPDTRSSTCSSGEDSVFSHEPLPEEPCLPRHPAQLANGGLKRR

[34] = target: Ribosomal protein S6 kinase beta-1 (Homo sapiens) (UniProt P23443); conditions: Compound concentration 1000.0 nM
[35] = target: Phosphatidylinositol 4,5-bisphosphate 3-kinase catalytic subunit beta isoform (Homo sapiens) (UniProt P42338); conditions: Compound concentration 1000.0 nM
[36] = target: Serine/threonine-protein kinase tousled-like 1 (Homo sapiens) (UniProt Q9UKI8); conditions: Compound concentration 1000.0 nM
[37] = target: Mitogen-activated protein kinase kinase kinase 12 (Homo sapiens) (UniProt Q12852); conditions: Compound concentration 1000.0 nM
[38] = target: Rho-associated protein kinase 1 (Homo sapiens) (UniProt Q13464); conditions: Compound concentration 1000.0 nM
[39] = target: Ribosomal protein S6 kinase alpha-5 (Homo sapiens) (UniProt O75582); conditions: Compound concentration 1000.0 nM
[40] = target: Serine/threonine-protein kinase DCLK2 (Homo sapiens) (UniProt Q8N568); conditions: Compound concentration 1000.0 nM
[41] = target: Cyclin-dependent kinase 9 (Homo sapiens) (UniProt P50750); conditions: Compound concentration 1000.0 nM
[42] = target: Cyclin-dependent kinase 3 (Homo sapiens) (UniProt Q00526); conditions: Compound concentration 1000.0 nM
[43] = test system: Epidermal growth factor receptor (Homo sapiens), P00533 [L858R,T790M]; conditions: Compound concentration 1000.0 nM
[44] = target: Beta-1 adrenergic receptor (Homo sapiens) (UniProt P08588); conditions: Compound concentration 10.0 uM
[45] = target: 5-hydroxytryptamine receptor 1B (Homo sapiens, UniProt P28222); experiment: GPCRScan assay: inhibition of 5-HT1B; parameters: radioligand conc. used [nm] 0.6 – 1.5, parental cells stable HEK

Mitogen-activated protein kinase kinase kinase 5 (Homo sapiens), sequence (Q99683 whole entry): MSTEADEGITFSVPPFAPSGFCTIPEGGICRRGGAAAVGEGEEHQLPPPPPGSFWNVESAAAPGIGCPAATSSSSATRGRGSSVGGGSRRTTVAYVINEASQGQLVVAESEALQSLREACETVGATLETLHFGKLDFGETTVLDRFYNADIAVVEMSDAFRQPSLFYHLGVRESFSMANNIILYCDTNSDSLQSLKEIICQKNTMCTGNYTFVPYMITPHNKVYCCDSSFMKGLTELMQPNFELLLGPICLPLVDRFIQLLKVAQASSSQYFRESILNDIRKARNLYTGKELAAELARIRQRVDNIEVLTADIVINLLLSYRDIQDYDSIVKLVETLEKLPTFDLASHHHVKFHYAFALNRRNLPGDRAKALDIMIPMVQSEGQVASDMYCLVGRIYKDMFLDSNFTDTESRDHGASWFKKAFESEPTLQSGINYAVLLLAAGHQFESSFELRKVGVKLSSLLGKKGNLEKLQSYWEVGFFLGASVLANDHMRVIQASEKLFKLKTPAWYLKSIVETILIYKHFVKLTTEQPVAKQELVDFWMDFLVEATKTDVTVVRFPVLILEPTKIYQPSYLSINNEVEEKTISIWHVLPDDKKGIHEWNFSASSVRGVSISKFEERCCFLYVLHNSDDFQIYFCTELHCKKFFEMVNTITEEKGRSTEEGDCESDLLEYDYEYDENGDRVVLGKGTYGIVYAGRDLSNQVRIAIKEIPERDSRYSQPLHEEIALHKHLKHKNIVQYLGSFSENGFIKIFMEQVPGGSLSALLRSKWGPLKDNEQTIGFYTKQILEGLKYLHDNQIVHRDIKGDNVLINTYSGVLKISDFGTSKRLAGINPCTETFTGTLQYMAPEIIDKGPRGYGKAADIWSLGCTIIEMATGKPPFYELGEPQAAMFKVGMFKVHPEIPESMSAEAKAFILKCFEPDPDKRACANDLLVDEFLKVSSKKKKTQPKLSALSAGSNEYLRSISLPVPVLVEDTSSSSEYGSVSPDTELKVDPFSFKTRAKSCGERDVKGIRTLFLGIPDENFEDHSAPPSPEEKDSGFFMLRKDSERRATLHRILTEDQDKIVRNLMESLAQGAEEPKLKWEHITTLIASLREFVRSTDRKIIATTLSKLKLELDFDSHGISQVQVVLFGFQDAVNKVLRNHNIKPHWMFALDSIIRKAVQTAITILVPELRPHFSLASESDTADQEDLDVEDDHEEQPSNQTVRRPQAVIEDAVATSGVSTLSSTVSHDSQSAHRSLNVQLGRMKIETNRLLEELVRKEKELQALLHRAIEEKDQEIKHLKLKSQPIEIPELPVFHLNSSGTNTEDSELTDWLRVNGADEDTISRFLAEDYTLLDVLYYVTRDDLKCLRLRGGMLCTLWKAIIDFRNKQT

O=S(=O)(NC1CCC(c2cc(F)ccc2F)(S(=O)(=O)c2ccc(Cl)cc2)CC1)C(F)(F)F (stereo not given) [MRK-560]
residual activity [1]: 80% | residual activity [2]: 100% | residual activity [3]: 100% | residual activity [4]: 100% | residual activity [5]: 100% | residual activity [6]: 100% | residual activity [7]: 100% | residual activity [8]: 93% | residual activity [9]: 82% | residual activity [10]: 82% | residual activity [11]: 100% | residual activity [12]: 69% | residual activity [13]: 70% | residual activity [14]: 100% | residual activity [15]: 100% | residual activity [16]: 100% | residual activity [17]: 96% | residual activity [18]: 100% | residual activity [19]: 84% | residual activity [20]: 88% | residual activity [21]: 83% | residual activity [22]: 80% | residual activity [23]: 100% | residual activity [24]: 100% | residual activity [25]: 78% | residual activity [26]: 100% | residual activity [27]: 100% | residual activity [28]: 100% | residual activity [29]: 100% | residual activity [30]: 100% | residual activity [31]: 100% | residual activity [32]: 100% | residual activity [33]: 100% | residual activity [34]: 100% | residual activity [35]: 100% | residual activity [36]: 100% | residual activity [37]: 100% | residual activity [38]: 84% | residual activity [39]: 94% | residual activity [40]: 94% | residual activity [41]: 91% | residual activity [42]: 100% | residual activity [43]: 89%

CC(C)(C)OC(=O)N1CCCC1CNC1CCC(c2cc(F)ccc2F)(S(=O)(=O)c2ccc(Cl)cc2)CC1 (stereo not given) [GSI-NC]
inhibition [44]: 3.61% | pKi [45]: 6.02
